Numbers after ± are expanded uncertainties.
Legend:
[1] = refractive index (other wavelength) (dimensionless); conditions: 101.33 kPa, Liquid, Wavelength=632.8 nm, Standard Abbe refractometry
[2] = refractive index (other wavelength) (dimensionless); xn = mol fraction of the nth substance listed; conditions: 101.3 kPa, Liquid, Wavelength=632.8 nm, Standard Abbe refractometry

## CCCCCCCCCC [decane]
[1]; 278.87 K
  refractive index: 1.4169 ± 0.0006
[1]; 280.1 K
  refractive index: 1.4163 ± 0.0006
[1]; 281.3 K
  refractive index: 1.4158 ± 0.0006
[1]; 282.48 K
  refractive index: 1.4153 ± 0.0006
[1]; 283.62 K
  refractive index: 1.4148 ± 0.0006
[1]; 284.82 K
  refractive index: 1.4142 ± 0.0006
[1]; 286.06 K
  refractive index: 1.4137 ± 0.0006
[1]; 287.23 K
  refractive index: 1.4132 ± 0.0006

## CCCCCCCCCC [decane] + COC(=O)OC
[2]; 287.95 K, x2 = 0.101
  refractive index: 1.4095 ± 0.0008
[2]; 287.95 K, x2 = 0.204
  refractive index: 1.4062 ± 0.0008
[2]; 287.95 K, x2 = 0.3
  refractive index: 1.403 ± 0.0008
[2]; 287.95 K, x2 = 0.401
  refractive index: 1.3995 ± 0.0008
[2]; 287.95 K, x2 = 0.501
  refractive index: 1.3958 ± 0.0008
[2]; 287.95 K, x2 = 0.605
  refractive index: 1.3917 ± 0.0008
[2]; 287.95 K, x2 = 0.686
  refractive index: 1.388 ± 0.0008
[2]; 287.95 K, x2 = 0.8
  refractive index: 1.3821 ± 0.0008
[2]; 287.95 K, x2 = 0.903
  refractive index: 1.3762 ± 0.0008

## COC(=O)OC [dimethyl carbonate]
[1]; 277.34 K
  refractive index: 1.3749 ± 0.0006
[1]; 278.7 K
  refractive index: 1.3743 ± 0.0006
[1]; 280.06 K
  refractive index: 1.3737 ± 0.0006
[1]; 281.54 K
  refractive index: 1.373 ± 0.0006
[1]; 282.92 K
  refractive index: 1.3724 ± 0.0006
[1]; 284.24 K
  refractive index: 1.3718 ± 0.0006
[1]; 285.53 K
  refractive index: 1.3712 ± 0.0006
[1]; 286.93 K
  refractive index: 1.3706 ± 0.0006
[1]; 299.64 K
  refractive index: 1.3647 ± 0.0006
[1]; 300.69 K
  refractive index: 1.3642 ± 0.0006
[1]; 301.77 K
  refractive index: 1.3637 ± 0.0006
[1]; 302.82 K
  refractive index: 1.3632 ± 0.0006
[1]; 303.91 K
  refractive index: 1.3627 ± 0.0006
[1]; 304.99 K
  refractive index: 1.3622 ± 0.0006
[1]; 306.04 K
  refractive index: 1.3617 ± 0.0006
[1]; 307.11 K
  refractive index: 1.3612 ± 0.0006
[1]; 308.14 K
  refractive index: 1.3607 ± 0.0006

## COC(=O)OC [dimethyl carbonate] + CCCCCCCCCCCCCC
[2]; 308.14 K, x1 = 1
  refractive index: 1.3632 ± 0.0008

## CCCCCCCCCCCCCC [tetradecane]
[1]; 299.64 K
  refractive index: 1.4248 ± 0.0006
[1]; 300.67 K
  refractive index: 1.4244 ± 0.0006
[1]; 301.68 K
  refractive index: 1.424 ± 0.0006
[1]; 302.71 K
  refractive index: 1.4235 ± 0.0006
[1]; 303.75 K
  refractive index: 1.4231 ± 0.0006
[1]; 304.75 K
  refractive index: 1.4226 ± 0.0006
[1]; 305.78 K
  refractive index: 1.4222 ± 0.0006
[1]; 306.86 K
  refractive index: 1.4218 ± 0.0006
[1]; 307.91 K
  refractive index: 1.4213 ± 0.0006

## CCCCCCCCCCCCCC [tetradecane] + COC(=O)OC
[2]; 308.14 K, x2 = 0
  refractive index: 1.4235 ± 0.0008
[2]; 308.14 K, x2 = 0.1
  refractive index: 1.4179 ± 0.0008
[2]; 308.14 K, x2 = 0.201
  refractive index: 1.4145 ± 0.0008
[2]; 308.14 K, x2 = 0.3
  refractive index: 1.4107 ± 0.0008
[2]; 308.14 K, x2 = 0.399
  refractive index: 1.4067 ± 0.0008
[2]; 308.14 K, x2 = 0.5
  refractive index: 1.4019 ± 0.0008
[2]; 308.14 K, x2 = 0.6
  refractive index: 1.3966 ± 0.0008
[2]; 308.14 K, x2 = 0.708
  refractive index: 1.3898 ± 0.0008
[2]; 308.14 K, x2 = 0.801
  refractive index: 1.3826 ± 0.0008
[2]; 308.14 K, x2 = 0.899
  refractive index: 1.3729 ± 0.0008

Reference: the NIST ThermoML archive (doi:10.1021/je800787t)
